Test results: ChEMBL document CHEMBL1158871, “Minor Bioactive Dihydrophenanthrenes from Juncus effusus” (1997)

Experiments:
Type in all cases: functional
Conditions in all cases: UTEX 1648, light or radiation study, read-out: GI
[1] = tested on: Selenastrum capricornutum; assay: Antialgal activity against Selenastrum capricornutum UTEX 1648 assessed as growth inhibition at 10 uM exposed to 150 uEs'-1m'-2 irradiation under 16 hrs light/8 hrs dark photoperiod conditions relative to control
[2] = tested on: Selenastrum capricornutum; assay: Antialgal activity against Selenastrum capricornutum UTEX 1648 assessed as growth inhibition at 50 uM exposed to 150 uEs'-1m'-2 irradiation under 16 hrs light/8 hrs dark photoperiod conditions relative to control
[3] = tested on: Selenastrum capricornutum; assay: Antialgal activity against Selenastrum capricornutum UTEX 1648 assessed as growth inhibition at 5 uM exposed to 150 uEs'-1m'-2 irradiation under 16 hrs light/8 hrs dark photoperiod conditions relative to control
[4] = tested on: Selenastrum capricornutum; assay: Antialgal activity against Selenastrum capricornutum UTEX 1648 assessed as growth inhibition at 0.1 mM exposed to 150 uEs'-1m'-2 irradiation under 16 hrs light/8 hrs dark photoperiod conditions relative to control

Structure (SMILES) | inhibition of growth at 10 µM [1] | inhibition of growth at 50 µM [2] | inhibition of growth at 5 µM [3] | inhibition of growth at 100 µM [4]
Cc1cc(CO)c2c(c1)CCc1c-2ccc(O)c1C | 20% | 50% | 7% | 80%
Cc1c(O)ccc2c1CCc1c(C)c(O)cc(CO)c1-2 | 10% | 40% | 4% | 70%
C=Cc1cc(CO)cc2c1-c1ccc(O)c(C)c1CC2 | 0% | 38% | 0% | 57%
Cc1cc2c(c3c1OC(O)C3O)-c1ccc(O)c(C)c1CC2 (stereo not drawn) | 0% | 10% | 0% | 20%
COc1cc(CO)c2c(c1C)CCc1c-2ccc(O)c1C | 18% | 55% | 0% | 80%
C=Cc1c(CO)ccc2c1-c1ccc(O)c(C)c1CC2 | 5% | 40% | 0% | 64%
Cc1c(O)ccc2c1CCc1c(C)c(O)cc(C(C)O)c1-2 (stereo not drawn) | 20% | 52% | 5% | 75%
